# Assay results as given in US20220136032A1, “SELECTION MEDIUM FOR BACTERIA BELONGING TO GENUS PSEUDOMONAS AND USE THEREOF” (KABUSHIKI KAISHA YAKULT HONSHA, priority 2019, published 2022).
# Structures can show the parent of a compound that is named as a salt. Where two headings read alike, the source gives them in different places.
# Experiments:
# Test in all cases: Measurement of minimum inhibitory concentrations (MICs), liquid medium, OD 660 nm
# P. aeruginosa = type: cell-based, Pseudomonas aeruginosa; details: for MIC: Pseudomonas aeruginosa, read-out: MIC (μg/ml) P. aeruginosa
# Method: (§1) Colonies of E. coli, E. faecium and C. kerstersii, which formed colonies on the plate medium obtained by mixing NAC medium and TSA medium at a ratio of 1:20, and colonies of P. aeruginosa were taken, added to 500 μl of the basal medium, stirred and subjected to the following experiment.
# The antibacterial agents were dissolved in sterilized distilled water at 51.2 mg/ml and then sterilized by filtration through a membrane filter of 0.45 μm (DISMIC-25cs: Toyo Roshi).
# (§2) After adding 5 μl of the bacterial solutions to the wells and thoroughly stirring, the bacteria were cultured at 37° C. for 24 hours. After culturing, the OD values (660 nm) were measured, and the lowest concentrations of the antibacterial agents at which the growth was inhibited as compared to that of the negative control (MICs: minimum inhibitory concentrations) were determined. As the negative control, the liquid medium to which the antibacterial agents were not added was used.
# E. coli = type: cell-based; details: Escherichia coli; Trypticase Soy Broth, 37° C. 24 hours; read-out: MIC (μg/ml) E. coli
# Method: as §1
# (§3) As antibacterial agents to which the sensitivity of P. aeruginosa is low and to which the sensitivities of E. coli, E. faecium and C. kerstersii are high, cefotaxime sodium salt (Sigma (referred to as “Cefotaxime” below)), ceftizoxime sodium (Fujisawa Healthcare (referred to as “Ceftizoxime” below)), vancomycin hydrochloride (Sigma (referred to as “Vancomycin” below)), minocyclin hydrochloride (Sigma (referred to as “Minocyclin” below)) and cefalotin sodium salt (Sigma (referred to as “Cefalotin” below)) were selected. The antibacterial agents were dissolved in sterilized distilled water at 51.2 mg/ml and then sterilized by filtration through a membrane filter of 0.45 μm (DISMIC-25cs: Toyo Roshi).
# as §2, with “As the negative control, the liquid medium to which the antibacterial agents were not added was used.” left out
# C. kerstersii = type: cell-based, Comamonas kerstersii; details: for MIC: Comamonas kerstersii, read-out: MIC (μg/ml) C. kerstersii
# Method: as §1, §3, §2
# E. faecium = type: cell-based, Enterococcus faecium; details: Trypticase Soy Broth, 37° C. 24 hours
# Method: as §1, §3
# as §2, with “As the negative control, the liquid medium to which the antibacterial agents were not added was used.” left out
# [1] = Trypticase Soy Broth, 37° C. 24 hours
structure (smiles),measurement,setting,value
"CO/N=C(\C(=O)N[C@@H]1C(=O)N2C(C(=O)O)=CCS[C@H]12)c1csc(N)n1 [Ceftizoxime, ceftizoxime sodium]",MIC,P. aeruginosa; [1],64 µg/mL
same,MIC,E. coli,< 0.5 µg/mL
"CN(C)c1ccc(O)c2c1C[C@@H]1C[C@@H]3[C@H](N(C)C)C(=O)C(C(N)=O)=C(O)[C@@]3(O)C(=O)C1=C2O.Cl [Minocyclin, minocyclin hydrochloride]",MIC (μg/ml) C. kerstersii,C. kerstersii; [1],<0.5 µg/mL
same,Sensitivity of P. aeruginosa to the antibacterial agent,P. aeruginosa,sensitive
same,MIC (μg/ml) P. aeruginosa,P. aeruginosa; [1],<0.5 µg/mL
same,MIC (μg/ml) E. faecium,E. faecium,<0.5 µg/mL
"CN[C@H](CC(C)C)C(=O)N[C@H]1C(=O)N[C@@H](CC(N)=O)C(=O)N[C@H]2C(=O)N[C@H]3C(=O)N[C@H](C(=O)N[C@H](C(=O)O)c4cc(O)cc(O)c4-c4cc3ccc4O)[C@H](O)c3ccc(c(Cl)c3)Oc3cc2cc(c3O[C@@H]2O[C@H](CO)[C@@H](O)[C@H](O)[C@H]2O[C@H]2C[C@](C)(N)[C@H](O)[C@H](C)O2)Oc2ccc(cc2Cl)[C@H]1O [Vancomycin, vancomycin hydrochloride]",Sensitivity of C. kerstersii to the antibacterial agent,C. kerstersii,low
same,MIC,C. kerstersii; 24 h,128 µg/mL
same,MIC,P. aeruginosa; 24 h,> 256 µg/mL
"CC(=O)OCC1=C(C(=O)O)N2C(=O)[C@@H](NC(=O)Cc3cccs3)[C@H]2SC1 [Cefalotin, cefalotin sodium salt]",MIC,C. kerstersii; [1],16 µg/mL
same,Sensitivity of P. aeruginosa to the antibacterial agent,P. aeruginosa,low
same,MIC,P. aeruginosa; [1],> 256 µg/mL
same,MIC,"E. faecium; Enterococcus faecium, read-out: MIC (μg/ml) E. faecium",8 µg/mL
"CO/N=C(\C(=O)N[C@@H]1C(=O)N2C(C(=O)O)=C(COC(C)=O)CS[C@H]12)c1csc(N)n1 [Cefotaxime, cefotaxime sodium salt]",MIC,P. aeruginosa; [1],16 µg/mL
same,MIC,E. coli,< 0.5 µg/mL
